Earlier results on one compound are cited in patent US10711043B2, “Compositions and vaccines comprising vesicles and methods of using the same” (priority 2013, dated 2020).

As to `COc1cc2cc(c1Cl)N(C)C(=O)C[C@H](OC(=O)[C@H](C)N(C)C(C)=O)[C@]1(C)O[C@H]1[C@H](C)[C@@H]1C[C@@](O)(NC(=O)O1)[C@H](OC)/C=C/C=C(\C)C2` [Maytansine, maytansine], the solubility entry was “insoluble in water and most solvents”.
